The results in this text go back to patent publication US20250163057A1, “DCN-1 MODULATING COMPOUNDS AND METHODS OF USE THEREOF” (Cellarity, Inc., priority 2023, published 2025).

Like-named read-outs stand apart in the source and are kept apart here.

Assay [1] relates to fetal hemoglobin gene HBG1. Description: HBG1 Nanostring Assay in CD34+ HSPC erythroid differentiation culture. In kind it is cell-based, human. To be noted: for EC50: HBG1 induction, Day10 of erythroid differentiation; for Nanostring Ymax obs (%): relative to a control compound (C1). The method, boiled down: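 HBG1 counts came from direct nCounter hybridization (67° C, 22 h) of day-10 lysates, normalized to ERCC positive controls and a housekeeping gene, giving EC50 and Ymax versus a reference compound. Compounds in 0.1% DMSO were present from day −2 while cells underwent EPO/SCF/IL-3 erythroid differentiation, with IL-3 dropped at day 7, at 37° C.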

Assay [2] relates to Cullin-3 (CUL3) neddylation. Description: AlphaLISA assay for Cullin-3 (CUL3) neddylation in TF 1 cells. The format is cell-based. Conditions: 3 hours treatment. Put shortly: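 Neddylated CUL3 was quantified by AlphaLISA in lysates of TF 1 cells exposed for 3 h to test compound in IMDM without supplements. Percent inhibition set between vehicle and 1 μM DI-1548 positive control; IC50 derived by Hill-equation fitting of dose-response curves.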

Assay [3] deals with DCN1 (DCUND1) protein PONY domain (Homo sapiens (Human), UniProt Q96GG9). Description: TR-FRET assay, DCN1 binding with FAM-labeled probe. The method, boiled down:
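Tb-DCN1 PONY domain (E. coli, biotin/streptavidin-Tb); FAM-labelled non-covalent inhibitor probe; TritonX buffer, 200 mM NaCl; 5 nM DCN1 + 20 nM probe or 0.31 nM DCN1 + 900 nM total probe; 0.1% DMSO; TR-FRET read 1, 5, 24 hrs.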
(Time-resolved FRET reads energy transfer from a long-lived donor to a nearby acceptor.)

In a further assay the target is DCN1 protein (Homo sapiens (Human), UniProt Q96GG9). Description: Intact Protein MS Analysis with the RapidFire-TOF System (covalent adduct formation). The format is binding. Conditions: MS Emax; 400 nM DCN1, 3 hours at room temperature. The method, boiled down: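 Tag-cleaved human DCN1 (400 nM) expressed in E. coli, in 25 mM Tris-HCl, 200 mM NaCl, 1 mM DTT, was incubated with 11 compound concentrations for 3 h at room temperature and quenched with 0.2% formic acid. Intact-protein Q-TOF MS with deconvolution detected the compound adduct mass.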
DCN1 protein, sequence (Q96GG9 whole entry): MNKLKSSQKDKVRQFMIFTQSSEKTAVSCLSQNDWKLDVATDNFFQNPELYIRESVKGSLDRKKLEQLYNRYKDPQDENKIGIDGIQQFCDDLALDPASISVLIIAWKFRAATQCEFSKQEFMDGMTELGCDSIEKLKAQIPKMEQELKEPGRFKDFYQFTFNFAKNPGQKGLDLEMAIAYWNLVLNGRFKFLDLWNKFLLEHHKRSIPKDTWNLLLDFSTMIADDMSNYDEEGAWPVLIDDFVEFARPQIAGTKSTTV

[4] abbreviates: 24 hr after treatment with compound, read-out: TR FRET IC50 24 hr.
Where [5] appears, read: TR FRET IC50 1 hr (nM), 1 hr after treatment with compound.
Where [6] appears, read: read-out: TR FRET IC50 1 hr, 1 hr after treatment with compound.

In general, EC50 refers to the concentration giving half of the maximal effect. A lower EC50 goes with higher potency in that assay. The IC50 is the concentration at which inhibition is half-maximal.

DCN1 (DCUND1) protein PONY domain, sequence (Q96GG9 60-248): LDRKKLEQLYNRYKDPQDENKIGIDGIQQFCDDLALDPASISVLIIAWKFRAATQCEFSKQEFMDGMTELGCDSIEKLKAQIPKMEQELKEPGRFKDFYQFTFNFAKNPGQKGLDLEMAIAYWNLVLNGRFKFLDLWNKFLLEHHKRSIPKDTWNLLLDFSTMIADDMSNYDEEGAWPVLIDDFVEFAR

Consider `C=C(CO)C(=O)NCc1nn(-c2ccccc2)c2c1[C@@H](c1ccc(F)cc1)[C@H](NC(=O)c1cccc(C(F)(F)F)c1)C(=O)N2CC` [Compound I-106], for which, in assay [1] (Homo sapiens, 240 h), the 50% effective concentration (EC50) is > 1000 nM. In addition, the “Nanostring Ymax obs (%)” value in assay [1] is “++ (Nanostring Ymax greater than 50.0 and less than or equal to 100.0)”. Besides, the IC50 is 100 to 1000 nM in assay [2] (Homo sapiens, TF-1, 3 h); 200 to 1000 nM in assay [3] (setting [4]); 200 to 1000 nM in assay [3] (setting [5]). The “% Adduct Formation” value on DCN1 protein is “+ (MS Emax % adduct formation greater than or equal to 0.0 and less than or equal to 30.0)”.

Turning to `CCN1C(=O)[C@H](NC(=O)c2cccc(C(F)(F)F)c2)[C@@H](c2ccc(F)cc2)c2c(CNC(=O)/C(C)=C/C(=O)OC)nn(-c3ccccc3)c21` [Compound I-108], the EC50 in assay [1] (Homo sapiens, 240 h) was > 1000 nM. Also, in assay [1], the “Nanostring Ymax obs (%)” value was “++ (Nanostring Ymax greater than 50.0 and less than or equal to 100.0)”. The IC50 in assay [2] (Homo sapiens, TF-1, 3 h) is ≤ 100 nM; in assay [3] (setting [4]), 200 to 1000 nM; in assay [3] (setting [5]), 200 to 1000 nM. For the same compound, the “% Adduct Formation” value at DCN1 protein is “+ (MS Emax % adduct formation greater than or equal to 0.0 and less than or equal to 30.0)”.

Turning to `CCN1C(=O)[C@@H](NC(=O)c2cccc(C(F)(F)F)c2)[C@@H](c2ccc(F)cc2)c2c(CN(C)C(=O)/C=C/CN(C)C)nn(-c3ccccc3)c21` [Compound I-117], the concentration for a half-maximal effect (EC50) in assay [1] (Homo sapiens, 240 h) is > 1000 nM. The “Nanostring Ymax obs (%)” value in assay [1] is “+ (Nanostring Ymax greater than or equal to 0.0 and less than or equal to 50.0)”. The IC50 in assay [2] (Homo sapiens, TF-1, 3 h) is > 1000 nM; in assay [3] (setting [4]), 200 to 1000 nM; in assay [3] (setting [5]), 200 to 1000 nM. At DCN1 protein, the “% Adduct Formation” value is “+ (MS Emax % adduct formation greater than or equal to 0.0 and less than or equal to 30.0)”.

The compound `CCN1C(=O)[C@@H](NC(=O)c2cccc(C(F)(F)F)c2)[C@@H](c2ccc(F)cc2)c2c(NC(=O)/C=C/C(F)(F)F)nn(-c3ccccc3)c21` [Compound I-125] came in with an EC50 in assay [1] (Homo sapiens, 240 h) of 100 to 1000 nM. For the same compound, the “Nanostring Ymax obs (%)” value in assay [1] is given as “+++ (Nanostring Ymax greater than 100.0)”. Besides, the IC50 in assay [2] (Homo sapiens, TF-1, 3 h) was ≤ 100 nM; in assay [3] (setting [4]) it was 200 to 1000 nM; in assay [3] (setting [6]), > 3000 nM. Also, the “% Adduct Formation” value on DCN1 protein was “++ (MS Emax % adduct formation greater than 30.0 and less than or equal to 80.0)”.

For the compound `CCN1C(=O)[C@@H](NC(=O)c2cccc(C(F)(F)F)c2)[C@@H](c2ccc(F)cc2)c2c(CN(C)C#N)nn(-c3ccccc3)c21` [Compound I-129], in assay [1], the EC50 was > 1000 nM. Further, the “Nanostring Ymax obs (%)” value in assay [1] is “+ (Nanostring Ymax greater than or equal to 0.0 and less than or equal to 50.0)”. The IC50 in assay [2] was 100 to 1000 nM; in assay [3] (setting [4]), ≤ 200 nM; in assay [3] (setting [5]), 200 to 1000 nM. For the same compound, the “% Adduct Formation” value at DCN1 protein is “+++ (MS Emax % adduct formation greater than 80.0 and less than or equal to 100.0)”.

Regarding `C=C(CC(=O)NCc1nn(-c2ccccc2)c2c1[C@@H](c1ccc(F)cc1)[C@H](NC(=O)c1cccc(C(F)(F)F)c1)C(=O)N2CC)C(=O)OC` [Compound I-132], the concentration giving a half-maximal response (EC50) in assay [1] (Homo sapiens, 240 h) is > 1000 nM. In addition, the “Nanostring Ymax obs (%)” value in assay [1] was “+ (Nanostring Ymax greater than or equal to 0.0 and less than or equal to 50.0)”. Further, the 50% inhibitory concentration (IC50) is 100 to 1000 nM in assay [2] (Homo sapiens, TF-1, 3 h); ≤ 200 nM in assay [3] (setting [4]); 200 to 1000 nM in assay [3] (setting [5]). Moreover, the “% Adduct Formation” value at DCN1 protein is “++ (MS Emax % adduct formation greater than 30.0 and less than or equal to 80.0)”.

In the case of `CCN1C(=O)[C@@H](NC(=O)c2cccc(C(F)(F)F)c2)[C@@H](c2ccc(F)cc2)c2c(C(=O)NCC#N)nn(-c3ccccc3)c21` [Compound I-148], the “Nanostring Ymax obs (%)” value in assay [1] was “+ (Nanostring Ymax greater than or equal to 0.0 and less than or equal to 50.0)”. Moreover, the IC50 in assay [2] (Homo sapiens, TF-1, 3 h) lay within 100 to 1000 nM; in assay [3] (setting [4]), 200 to 1000 nM; in assay [3] (setting [5]), 1000 to 3000 nM. Moreover, at DCN1 protein, the “% Adduct Formation” value was “+++ (MS Emax % adduct formation greater than 80.0 and less than or equal to 100.0)”.

Take `C=C(C(=O)O)c1nn(-c2ccccc2)c2c1[C@H](c1ccc(F)cc1)[C@H](NC(=O)c1cccc(C(F)(F)F)c1)C(=O)N2CC` [Compound I-153, 2-((4S,5S)-7-ethyl-4-(4-fluorophenyl)-6-oxo-1-phenyl-5-(3-(trifluoromethyl)benzamido)-4,5,6,7-tetrahydro-1H-pyrazolo[3,4-b]pyridin-3-yl)acrylic acid]: in assay [1] (Homo sapiens, 240 h), the half-maximal effective concentration (EC50) was in the range of 100 to 1000 nM. Further, the “Nanostring Ymax obs (%)” value in assay [1] was “++ (Nanostring Ymax greater than 50.0 and less than or equal to 100.0)”. Further, the IC50 in assay [2] (Homo sapiens, TF-1, 3 h) is ≤ 100 nM; in assay [3] (setting [4]) it was ≤ 200 nM; in assay [3] (setting [5]) it was 200 to 1000 nM. For the same compound, the “% Adduct Formation” value on DCN1 protein was “++ (MS Emax % adduct formation greater than 30.0 and less than or equal to 80.0)”.

`C[C@@H](NC#N)c1nn(-c2ccccc2)c2c1[C@H](c1ccc(F)cc1)[C@H](NC(=O)c1cccc(C(F)(F)F)c1)C(=O)N2CCO` [Compound I-274]: in assay [1], the “Nanostring Ymax obs (%)” value was “+ (Nanostring Ymax greater than or equal to 0.0 and less than or equal to 50.0)”. In addition, the IC50 was ≤ 100 nM in assay [2] (Homo sapiens, TF-1, 3 h); ≤ 200 nM in assay [3] (setting [4]); ≤ 200 nM in assay [3] (setting [6]). Besides, the “% Adduct Formation” value on DCN1 protein is “+++ (MS Emax % adduct formation greater than 80.0 and less than or equal to 100.0)”.

As for `CCN1C(=O)[C@@H](NC(=O)c2cccc(C(F)(F)F)c2)[C@@H](c2ccc(F)cc2)c2c(C(=O)N3C[C@H](OC)C[C@H]3C#N)nn(C3CCOCC3)c21` [Compound I-358], in assay [1] (Homo sapiens, 240 h), the EC50 was ≤ 100 nM. Further, the “Nanostring Ymax obs (%)” value in assay [1] is given as “+++ (Nanostring Ymax greater than 100.0)”. Also, the IC50 in assay [2] (Homo sapiens, TF-1, 3 h) is ≤ 100 nM; in assay [3] (setting [4]), ≤ 200 nM; in assay [3] (setting [6]) it was ≤ 200 nM. Also, the “% Adduct Formation” value at DCN1 protein was “+++ (MS Emax % adduct formation greater than 80.0 and less than or equal to 100.0)”.

For `CCN1C(=O)[C@@H](NC(=O)c2cccc(C(F)(F)F)c2)[C@@H](c2ccc(F)cc2)c2c(C(=O)N3CC[C@H](OC)[C@H]3C#N)nn(C3CCOCC3)c21` [Compound I-359], in assay [1] (Homo sapiens, 240 h), the EC50 was ≤ 100 nM. The “Nanostring Ymax obs (%)” value in assay [1] is on record as “+++ (Nanostring Ymax greater than 100.0)”. The IC50 in assay [2] (Homo sapiens, TF-1, 3 h) is ≤ 100 nM; in assay [3] (setting [4]) it was ≤ 200 nM; in assay [3] (setting [6]) it was ≤ 200 nM. At DCN1 protein, the “% Adduct Formation” value is “+++ (MS Emax % adduct formation greater than 80.0 and less than or equal to 100.0)”.

`CCN1C(=O)[C@@H](NC(=O)c2cccc(C(F)(F)F)c2)[C@@H](c2ccc(F)cc2)c2c(C(=O)N3C[C@H](F)C[C@H]3C#N)nn(C3CCOCC3)c21` [Compound I-360]: in assay [1] (Homo sapiens, 240 h), the EC50 was ≤ 100 nM. Further, the “Nanostring Ymax obs (%)” value in assay [1] is reported as “+++ (Nanostring Ymax greater than 100.0)”. Moreover, the IC50 was ≤ 100 nM in assay [2] (Homo sapiens, TF-1, 3 h); ≤ 200 nM in assay [3] (setting [4]); ≤ 200 nM in assay [3] (setting [6]). Besides, on DCN1 protein, the “% Adduct Formation” value is “+++ (MS Emax % adduct formation greater than 80.0 and less than or equal to 100.0)”.

With `CCN1C(=O)[C@@H](NC(=O)c2cccc(C(F)(F)F)c2)[C@@H](c2ccc(F)cc2)c2c(C(=O)N3CC(F)(F)C[C@H]3C#N)nn(C3CCOCC3)c21` [Compound I-361], in assay [1] (Homo sapiens, 240 h), the EC50 is ≤ 100 nM. In addition, in assay [1], the “Nanostring Ymax obs (%)” value is recorded as “+++ (Nanostring Ymax greater than 100.0)”. Also, the half-maximal inhibitory concentration (IC50) in assay [2] (Homo sapiens, TF-1, 3 h) was ≤ 100 nM; in assay [3] (setting [4]), ≤ 200 nM; in assay [3] (setting [6]) it was ≤ 200 nM. For the same compound, on DCN1 protein, the “% Adduct Formation” value was “+++ (MS Emax % adduct formation greater than 80.0 and less than or equal to 100.0)”.
